# Experimental data from US10882882B2, “Post fermented tea-derived kaempferol-based compound” (AMOREPACIFIC CORPORATION, priority 2016, dated 2021).
# Columns and labels:
# healthy adult subjects = assay: Human repeated insult patch test (HRIPT), cumulative skin irritation; type: in vivo; conditions: for Number of subjects showed ± reactivity, 1st time / Number of subjects showed + reactivity, 1st time / Number of subjects showed ++ reactivity, 1st time: 1st patch; for Number of subjects showed ± reactivity, 1st time / Number of subjects showed ± reactivity, 2nd time / Number of subjects showed ± reactivity, 3rd time / Number of subjects showed ± reactivity, 4th time / Number of subjects showed ± reactivity, 5th time / Number of subjects showed ± reactivity, 6th time / Number of subjects showed ± reactivity, 7th time / Number of subjects showed ± reactivity, 8th time / Number of subjects showed ± reactivity, 9th time: 1st of 3 lines (±); for Number of subjects showed + reactivity, 1st time / Number of subjects showed + reactivity, 2nd time / Number of subjects showed + reactivity, 3rd time / Number of subjects showed + reactivity, 4th time / Number of subjects showed + reactivity, 5th time / Number of subjects showed + reactivity, 6th time / Number of subjects showed + reactivity, 7th time / Number of subjects showed + reactivity, 8th time / Number of subjects showed + reactivity, 9th time: 2nd of 3 lines (+); for Number of subjects showed ++ reactivity, 1st time / Number of subjects showed ++ reactivity, 2nd time / Number of subjects showed ++ reactivity, 3rd time / Number of subjects showed ++ reactivity, 4th time / Number of subjects showed ++ reactivity, 5th time / Number of subjects showed ++ reactivity, 6th time / Number of subjects showed ++ reactivity, 7th time / Number of subjects showed ++ reactivity, 8th time / Number of subjects showed ++ reactivity, 9th time: 3rd of 3 lines (++); for Number of subjects showed ± reactivity, 2nd time / Number of subjects showed + reactivity, 2nd time / Number of subjects showed ++ reactivity, 2nd time: 2nd patch; for Number of subjects showed ± reactivity, 3rd time / Number of subjects showed + reactivity, 3rd time / Number of subjects showed ++ reactivity, 3rd time: 3rd patch; for Number of subjects showed ± reactivity, 4th time / Number of subjects showed + reactivity, 4th time / Number of subjects showed ++ reactivity, 4th time: 4th patch; for Number of subjects showed ± reactivity, 5th time / Number of subjects showed + reactivity, 5th time / Number of subjects showed ++ reactivity, 5th time: 5th patch; for Number of subjects showed ± reactivity, 6th time / Number of subjects showed + reactivity, 6th time / Number of subjects showed ++ reactivity, 6th time: 6th patch; for Number of subjects showed ± reactivity, 7th time / Number of subjects showed + reactivity, 7th time / Number of subjects showed ++ reactivity, 7th time: 7th patch; for Number of subjects showed ± reactivity, 8th time / Number of subjects showed + reactivity, 8th time / Number of subjects showed ++ reactivity, 8th time: 8th patch; for Average reactivity: 9 patches over three weeks, safe when less than 3; for Number of subjects showed ± reactivity, 9th time / Number of subjects showed + reactivity, 9th time / Number of subjects showed ++ reactivity, 9th time: 9th patch
# Description: Human repeated insult patch tests (HRIPT) were conducted to determine the cumulative skin irritation by kaempferol3-O-[2-O″-(E)-p-coumaroyl][beta-D-glucopyranosyl-(1→3)-O-alpha-L-rhamnopyranosyl-(1→6)-O-beta-D-glucopyranoside] and to calculate the concentration range in which kaempferol3-O-[2-O″-(E)-p-coumaroyl][beta-D-glucopyranosyl-(1→3)-O-alpha-L-rhamnopyranosyl-(1→6)-O-beta-D-glucopyranoside] can be used on the skin.
# Specifically, 15 healthy adult subjects were randomly selected, the test compositions (compositions for skin containing an emulsifier, a stabilizer, purified water, and the like in addition to the compound) containing the compound at 0.5 wt %, 1 wt %, and 3 wt % were dropped by 20 μl per chamber (IQ chamber, Epitest Ltd, Finland), and the patch was applied to the right side of the upper back of the subject and then replaced with new one after 24 hours. The skin reaction was examined before and after the patch test while the patch test was conducted three times a week and thus nine times for three weeks in total in this manner, the skin reaction was observed until the 48th hour after removal of the final patch, and the average reactivity was determined.
# The skin reaction was judged according to the criteria of the International Contact Dermatitis Research Group (ICDRG). In the above table, “Novel substance 33” denotes kaempferol3-O-[2-O″-(E)-p-coumaroyl][beta-D-glucopyranosyl-(1→3)-O-alpha-L-rhamnopyranosyl-(1→6)-O-beta-D-glucopyranoside].
# beta amyloid (Aβ1-42) = biological target: T1, beta amyloid (Aβ1-42) (Homo sapiens, UniProt P05067); assay: Inhibition of beta amyloid aggregation, fluorescence analysis (ThioflavinT assay); type: biochemical
# T1 construct: beta amyloid (Aβ1-42, AnaSpec Inc, USA); purchased AnaSpec Inc, USA
# T1 sequence (P05067 672-713 limits assumed): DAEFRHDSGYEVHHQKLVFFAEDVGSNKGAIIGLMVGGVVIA
# Description: The effect of kaempferol3-O-[2-O″-(E)-p-coumaroyl][beta-D-glucopyranosyl-(1→3)-O-alpha-L-rhamnopyranosyl-(1→6)-O-beta-D-glucopyranoside] on inhibition of beta amyloid aggregation was confirmed by the fluorescence analysis (ThioflavinT assay). Specifically, beta amyloid (Aβ1-42, AnaSpec Inc, USA) was obtained and used at a concentration of 0.1 mg/ml and stored at −80° C. before use. Morin (20 μM), phenol red (20 μM), and kaempferol3-O-[2-O″-(E)-p-coumaroyl][beta-D-glucopyranosyl-(1→3)-O-alpha-L-rhamnopyranosyl-(1→6)-O-beta-D-glucopyranoside] (1 mg/ml) were respectively diluted with DMSO so as to be adjusted to the concentrations. In order to specify the degree of inhibition of Aβ1-42 aggregation, each of the compounds prepared at the above concentrations was diluted with 50 μL of 0.01 M sodium phosphate buffer solution to have a concentration of 10 μM, then 40 μL of 0.1 mg/ml of Aβ1-42 was added thereto, and then 10 μl of 2 mM thioflavinT was added thereto, and fluorescence was measured using a fluorescence spectrometer (RF-5300PC, SHIMADZU CORPORATION, Japan) at 37° C. for 150 minutes at intervals of 5 minutes. In the above table, “RFU” denotes the relative fluorescence unit, and “Increased RFU” denotes the amount of aggregated beta amyloid, and “Increased RFU (% of Pos.Cont.)” denotes the percentage value of the amount of aggregated beta amyloid with respect to that of the positive control group. “Novel substance 33” denotes kaempferol3-O-[2-O″-(E)-p-coumaroyl][beta-D-glucopyranosyl-(1→3)-O-alpha-L-rhamnopyranosyl-(1→6)-O-beta-D-glucopyranoside].
smiles,measurement,setting,value
"CC1OC(OCC2OC(Oc3c(-c4ccc(O)cc4)oc4cc(O)cc(O)c4c3=O)C(OC(=O)/C=C/c3ccc(O)cc3)C(O)C2O)C(O)C(OC2OC(CO)C(O)C(O)C2O)C1O [Novel substance 33, kaempferol3-O-[2-O″-(E)-p-coumaroyl][beta-D-glucopyranosyl-(1→3)-O-alpha-L-rhamnopyranosyl-(1→6)-O-beta-D-glucopyranoside]]","Number of subjects showed ± reactivity, 1st time",healthy adult subjects; 0.5 wt %,0 persons
same,"Number of subjects showed + reactivity, 1st time",healthy adult subjects; 0.5 wt %,0 persons
same,"Number of subjects showed ++ reactivity, 1st time",healthy adult subjects; 0.5 wt %,0 persons
same,"Number of subjects showed ± reactivity, 2nd time",healthy adult subjects; 0.5 wt %,0 persons
same,"Number of subjects showed + reactivity, 2nd time",healthy adult subjects; 0.5 wt %,0 persons
same,"Number of subjects showed ++ reactivity, 2nd time",healthy adult subjects; 0.5 wt %,0 persons
same,"Number of subjects showed ± reactivity, 3rd time",healthy adult subjects; 0.5 wt %,0 persons
same,"Number of subjects showed + reactivity, 3rd time",healthy adult subjects; 0.5 wt %,0 persons
same,"Number of subjects showed ++ reactivity, 3rd time",healthy adult subjects; 0.5 wt %,0 persons
same,"Number of subjects showed ± reactivity, 4th time",healthy adult subjects; 0.5 wt %,0 persons
same,"Number of subjects showed + reactivity, 4th time",healthy adult subjects; 0.5 wt %,0 persons
same,"Number of subjects showed ++ reactivity, 4th time",healthy adult subjects; 0.5 wt %,0 persons
same,"Number of subjects showed ± reactivity, 5th time",healthy adult subjects; 0.5 wt %,0 persons
same,"Number of subjects showed + reactivity, 5th time",healthy adult subjects; 0.5 wt %,0 persons
same,"Number of subjects showed ++ reactivity, 5th time",healthy adult subjects; 0.5 wt %,0 persons
same,"Number of subjects showed ± reactivity, 6th time",healthy adult subjects; 0.5 wt %,0 persons
same,"Number of subjects showed + reactivity, 6th time",healthy adult subjects; 0.5 wt %,0 persons
same,"Number of subjects showed ++ reactivity, 6th time",healthy adult subjects; 0.5 wt %,0 persons
same,"Number of subjects showed ± reactivity, 7th time",healthy adult subjects; 0.5 wt %,0 persons
same,"Number of subjects showed + reactivity, 7th time",healthy adult subjects; 0.5 wt %,0 persons
same,"Number of subjects showed ++ reactivity, 7th time",healthy adult subjects; 0.5 wt %,0 persons
same,"Number of subjects showed ± reactivity, 8th time",healthy adult subjects; 0.5 wt %,0 persons
same,"Number of subjects showed + reactivity, 8th time",healthy adult subjects; 0.5 wt %,0 persons
same,"Number of subjects showed ++ reactivity, 8th time",healthy adult subjects; 0.5 wt %,0 persons
same,Average reactivity,healthy adult subjects; 0.5 wt %,0
same,"Number of subjects showed ± reactivity, 9th time",healthy adult subjects; 0.5 wt %,0 persons
same,"Number of subjects showed + reactivity, 9th time",healthy adult subjects; 0.5 wt %,0 persons
same,"Number of subjects showed ++ reactivity, 9th time",healthy adult subjects; 0.5 wt %,0 persons
same,"Number of subjects showed ± reactivity, 1st time",healthy adult subjects; 1 wt %,0 persons
same,"Number of subjects showed + reactivity, 1st time",healthy adult subjects; 1 wt %,0 persons
same,"Number of subjects showed ++ reactivity, 1st time",healthy adult subjects; 1 wt %,0 persons
same,"Number of subjects showed ± reactivity, 2nd time",healthy adult subjects; 1 wt %,0 persons
same,"Number of subjects showed + reactivity, 2nd time",healthy adult subjects; 1 wt %,0 persons
same,"Number of subjects showed ++ reactivity, 2nd time",healthy adult subjects; 1 wt %,0 persons
same,"Number of subjects showed ± reactivity, 3rd time",healthy adult subjects; 1 wt %,0 persons
same,"Number of subjects showed + reactivity, 3rd time",healthy adult subjects; 1 wt %,0 persons
same,"Number of subjects showed ++ reactivity, 3rd time",healthy adult subjects; 1 wt %,0 persons
same,"Number of subjects showed ± reactivity, 4th time",healthy adult subjects; 1 wt %,0 persons
same,"Number of subjects showed + reactivity, 4th time",healthy adult subjects; 1 wt %,0 persons
same,"Number of subjects showed ++ reactivity, 4th time",healthy adult subjects; 1 wt %,0 persons
same,"Number of subjects showed ± reactivity, 5th time",healthy adult subjects; 1 wt %,0 persons
same,"Number of subjects showed + reactivity, 5th time",healthy adult subjects; 1 wt %,0 persons
same,"Number of subjects showed ++ reactivity, 5th time",healthy adult subjects; 1 wt %,0 persons
same,"Number of subjects showed ± reactivity, 6th time",healthy adult subjects; 1 wt %,0 persons
same,"Number of subjects showed + reactivity, 6th time",healthy adult subjects; 1 wt %,0 persons
same,"Number of subjects showed ++ reactivity, 6th time",healthy adult subjects; 1 wt %,0 persons
same,"Number of subjects showed ± reactivity, 7th time",healthy adult subjects; 1 wt %,0 persons
same,"Number of subjects showed + reactivity, 7th time",healthy adult subjects; 1 wt %,0 persons
same,"Number of subjects showed ++ reactivity, 7th time",healthy adult subjects; 1 wt %,0 persons
same,"Number of subjects showed ± reactivity, 8th time",healthy adult subjects; 1 wt %,0 persons
same,"Number of subjects showed + reactivity, 8th time",healthy adult subjects; 1 wt %,0 persons
same,"Number of subjects showed ++ reactivity, 8th time",healthy adult subjects; 1 wt %,0 persons
same,Average reactivity,healthy adult subjects; 1 wt %,0
same,"Number of subjects showed ± reactivity, 9th time",healthy adult subjects; 1 wt %,0 persons
same,"Number of subjects showed + reactivity, 9th time",healthy adult subjects; 1 wt %,0 persons
same,"Number of subjects showed ++ reactivity, 9th time",healthy adult subjects; 1 wt %,0 persons
same,"Number of subjects showed ± reactivity, 1st time",healthy adult subjects; 3 wt %,0 persons
same,"Number of subjects showed + reactivity, 1st time",healthy adult subjects; 3 wt %,0 persons
same,"Number of subjects showed ++ reactivity, 1st time",healthy adult subjects; 3 wt %,0 persons
same,"Number of subjects showed ± reactivity, 2nd time",healthy adult subjects; 3 wt %,0 persons
same,"Number of subjects showed + reactivity, 2nd time",healthy adult subjects; 3 wt %,0 persons
same,"Number of subjects showed ++ reactivity, 2nd time",healthy adult subjects; 3 wt %,0 persons
same,"Number of subjects showed ± reactivity, 3rd time",healthy adult subjects; 3 wt %,0 persons
same,"Number of subjects showed + reactivity, 3rd time",healthy adult subjects; 3 wt %,0 persons
same,"Number of subjects showed ++ reactivity, 3rd time",healthy adult subjects; 3 wt %,0 persons
same,"Number of subjects showed ± reactivity, 4th time",healthy adult subjects; 3 wt %,0 persons
same,"Number of subjects showed + reactivity, 4th time",healthy adult subjects; 3 wt %,0 persons
same,"Number of subjects showed ++ reactivity, 4th time",healthy adult subjects; 3 wt %,0 persons
same,"Number of subjects showed ± reactivity, 5th time",healthy adult subjects; 3 wt %,0 persons
same,"Number of subjects showed + reactivity, 5th time",healthy adult subjects; 3 wt %,0 persons
same,"Number of subjects showed ++ reactivity, 5th time",healthy adult subjects; 3 wt %,0 persons
same,"Number of subjects showed ± reactivity, 6th time",healthy adult subjects; 3 wt %,0 persons
same,"Number of subjects showed + reactivity, 6th time",healthy adult subjects; 3 wt %,0 persons
same,"Number of subjects showed ++ reactivity, 6th time",healthy adult subjects; 3 wt %,0 persons
same,"Number of subjects showed ± reactivity, 7th time",healthy adult subjects; 3 wt %,0 persons
same,"Number of subjects showed + reactivity, 7th time",healthy adult subjects; 3 wt %,0 persons
same,"Number of subjects showed ++ reactivity, 7th time",healthy adult subjects; 3 wt %,0 persons
same,"Number of subjects showed ± reactivity, 8th time",healthy adult subjects; 3 wt %,0 persons
same,"Number of subjects showed + reactivity, 8th time",healthy adult subjects; 3 wt %,0 persons
same,"Number of subjects showed ++ reactivity, 8th time",healthy adult subjects; 3 wt %,0 persons
same,Average reactivity,healthy adult subjects; 3 wt %,0
same,"Number of subjects showed ± reactivity, 9th time",healthy adult subjects; 3 wt %,0 persons
same,"Number of subjects showed + reactivity, 9th time",healthy adult subjects; 3 wt %,0 persons
same,"Number of subjects showed ++ reactivity, 9th time",healthy adult subjects; 3 wt %,0 persons
same,cumulative skin irritation,"healthy adult subjects; HRIPT, 0.5 to 3 wt %",without cumulative skin irritation
same,Increased RFU (% of Pos. Cont.),"beta amyloid (Aβ1-42); compound 10 μM, Aβ1-42 0.1 mg/ml, 37° C., 150 minutes, Pos. Cont. (beta amyloid only) = 100",77.0%
same,Increased RFU (amount of aggregated beta amyloid),"beta amyloid (Aβ1-42); compound 10 μM, Aβ1-42 0.1 mg/ml, thioflavinT, 37° C., 150 minutes",11235 RFU
same,inhibition of beta amyloid aggregation as compared with the positive control group,"beta amyloid (Aβ1-42); positive control (only beta amyloid, no compound) taken as 100%",23.0%
